Key:
Assay type in all cases: cell-based
[1] = tested on: migration inhibitory factor-related protein-8 (MRP8); assay: RT-PCR expression level of MRP8 gene in monocytes; details: human monocytes, 30 PCR cycles
Description: (§1) Four-hundred milliliters of blood was collected from a human normal individual donor. The collected blood was diluted 2-folds with PBS(−), overlaid on Ficoll-paque (manufactured by Pharmacia), and centrifuged at 500×g for 20 minutes. The peripheral blood mononuclear cells (PBMCs) in the intermediate layer was collected with a pipette, and washed with RPMI 1640 medium (manufactured by Bio Whittaker). The collected PBMCs was suspended in a storage solution of 90% FCS (manufactured by JRH Biosciences)/10% dimethyl sulfoxide, and stored in liquid nitrogen. During the experiment, these stored PBMCs were rapidly melted in water bath at 37° C., and washed with RPMI 1640 medium containing 10 μg/ml Dnase (manufactured by Calbiochem). Thereafter, the number of living cells was calculated by trypan blue staining method, and subjected to each experiment.
(§2) PBMCs were suspended in RPMI 1640 medium containing 5% human serum of blood type-AB, 0.1 mM nonessential amino acid, 1 mM sodium pyruvate, 2 mM L-glutamine (hereinabove manufactured by Bio Whittaker), 10 mM HEPES (manufactured by nakalai tesque), and 1% streptomycin-penicillin (manufactured by Gibco BRL) (hereinafter simply referred to as “5HRPMI medium”) so as to have a concentration of 4×10^6 cells/ml. Thereafter, the suspension was spread on a 6-well cell culture plate (manufactured by Falcon) in a volume of 3 ml/well, and the cells were incubated in a wet-type incubator at 37° C. and 5% CO2 for 1.5 hours. After 1.5 hours, the non-adherent cells were removed by suction, and each well was washed with RPMI 1640 medium, and 2 ml of the 5HRPMI medium was added to the wells, to give monocytes.
(§3) To the monocytes obtained above was added in each well 8 μl of an aqueous DGE solution, or 8 μl of water as a control, and the cells were incubated in a wet-type incubator at 37° C. and 5% CO2 for 5 hours. Thereafter, with addition of 2 μl of a 1 μg/ml aqueous LPS solution or 2 μl of a 25 μM TPA dimethyl sulfoxide solution to each well, or with addition of neither of these substances thereto, the cells were cultured for additional 4 hours. Thereafter, RNA was prepared from each cell in accordance with the description of the kit using RNeasy Mini Kit (manufactured by QIAGEN, 74104). The group with addition of water alone or the aqueous DGE solution alone to the cells was set as a negative control, and the group with addition of water and the aqueous LPS solution or the aqueous TPA solution to the cells was set as a positive control.
(§4) A liquid mixture having a total volume of 60 μl of 0.5 μg of RNA prepared above, 10 mM Tris-HCl (pH 8.3), 50 mM KCl, 5 mM MgCl2, 1 mM dNTP mixtures, 150 pmol of Random 6 mers, 60 U Ribonuclease Inhibitor (manufactured by Takara Shuzo Co., Ltd., 2310A), and 15 U Reverse Transcriptase XL (AMV) (manufactured by Takara Shuzo Co., Ltd., 2620A) were incubated at 30° C. for 10 minutes and thereafter at 42° C. for 1 hour using a thermal cycler (GeneAmp PCR System 9600, manufactured by Applied Biosystems), and the mixture was heated at 99° C. for 5 minutes to deactivate the enzyme, to give cDNA.
(§5) Oligonucleotide primers for reaction of PCR were designed based on mRNA nucleotide sequence of each gene listed in the following tables, and synthesized in the same manner as above. In Tables 4 and 5, each gene evaluated in this Example, GenBank Accession NO, the name of oligonucleotide primers and SEQ ID NOs of the primers in Sequence Listing were listed. […]

[2] = tested on: Nef-associated factor-1 (NAF1); assay: RT-PCR expression level of NAF1 gene in monocytes; details: human monocytes, 30 PCR cycles
Description: as §1, §2, §3, §4, §5

[3] = tested on: growth regulated protein-1 (Gro1); assay: RT-PCR expression level of Gro1 gene in monocytes; details: human monocytes, 30 PCR cycles
Description: as §1, §2, §3, §4, §5

[4] = tested on: adenosine A2a receptor (ADORA2A); assay: RT-PCR expression level of ADORA2A gene in monocytes; details: human monocytes, 35 PCR cycles
Description: as §1, §2, §3, §4, §5

[5] = tested on: macrophage inflammatory protein-2-β (MIP2β); assay: RT-PCR expression level of MIP2β gene in monocytes; details: human monocytes, 30 PCR cycles
Description: as §1, §2, §3, §4, §5

[6] = tested on: tumor necrosis factor α (TNFα); assay: RT-PCR expression level of TNFα gene in monocytes; details: human monocytes, 30 PCR cycles
Description: as §1, §2, §3, §4, §5

MIP1α mRNA = assay: RT-PCR of MIP1α mRNA in monocytes; details: human monocytes; for amplification of band ascribed to MIP1α mRNA, stimulant alone: LPS or TPA alone, 4 hours, RT-PCR
Description: as §1, §2
as §3, with “control. […]” for “control.”

[7] = tested on: interferon-inducible protein p78 (IFNp78); assay: RT-PCR expression level of IFNp78 gene in monocytes; details: human monocytes, 30 PCR cycles
Description: as §1, §2, §3, §4, §5

[8] = tested on: liver and activation-regulated chemokine (LARC); assay: RT-PCR expression level of LARC gene in monocytes; details: human monocytes, 30 PCR cycles
Description: as §1, §2, §3, §4, §5

interleukin-1α (IL-1α) = assay: RT-PCR expression level of IL-1α gene in monocytes; details: human monocytes, 30 PCR cycles
Description: as §1, §2, §3, §4, §5

[9] = substance added alone, Con. (water) +
[10] = substance added alone, Con. (water) +/−
[11] = T + D: DGE and TPA, TPA alone +/−
[12] = L + D: DGE and LPS, LPS alone ++
[13] = L + D: DGE and LPS, LPS alone +++
[14] = T + D: DGE and TPA, TPA alone ++
[15] = T + D: DGE and TPA, TPA alone +

| Compound | expression level of MRP8 gene [1, 9] | expression level of NAF1 gene [2, 9] | expression level of Gro1 gene [3, 9] | expression level of ADORA2A gene [4, 9] | expression level of MIP2β gene [5, 9] | expression level of TNFα gene [6, 10] | amplification of band ascribed to MIP1α mRNA, stimulant alone (MIP1α mRNA) | expression level of IFNp78 gene [7, 9] | expression level of LARC gene [8, 10] | expression level of IL-1α gene (interleukin-1α (IL-1α); [10]) | other results |
| --- | --- | --- | --- | --- | --- | --- | --- | --- | --- | --- | --- |
| 12-o-tetradecanoylphorbol 13-acetate [TPA, reference compound] | +/− | +/− | ++ | + | ++ | + | induction | + | ++ | + |  |
| O=C1C=CC(CO)OC1O [DGE, L-glycero-1,5-epoxy-1αβ,6-dihydroxy-cis-hex-3-en-2-one] | + | − | + | +/− | + | − |  | +/− | +/− | − | expression level of MRP8 gene ([1]; L + D: DGE and LPS, LPS alone +/−): +; expression level of MRP8 gene [1, 11]: +; expression level of NAF1 gene [2, 12]: +/−; expression level of NAF1 gene [2, 11]: −; expression level of Gro1 gene [3, 13]: +; expression level of Gro1 gene [3, 14]: +; expression level of ADORA2A gene [4, 13]: −; expression level of ADORA2A gene [4, 15]: −; expression level of MIP2β gene [5, 12]: +; expression level of MIP2β gene [5, 14]: +; expression level of TNFα gene [6, 12]: +/−; expression level of TNFα gene [6, 15]: +/−; induction of MIP1α mRNA by LPS, effect of DGE (MIP1α mRNA; DGE 5 hours, then LPS 4 hours, RT-PCR band): inhibited; induction of MIP1α mRNA by TPA, effect of DGE (MIP1α mRNA; DGE 5 hours, then TPA 4 hours, RT-PCR band): inhibited; expression level of IFNp78 gene [7, 12]: −; expression level of IFNp78 gene [7, 15]: +/−; expression level of LARC gene [8, 13]: +; expression level of LARC gene [8, 14]: +; expression level of IL-1α gene (interleukin-1α (IL-1α); [13]): +/−; expression level of IL-1α gene (interleukin-1α (IL-1α); [15]): − |
| lipopolysaccharide [LPS, reference compound] | +/− | ++ | +++ | +++ | ++ | ++ | induction | ++ | +++ | +++ |  |
